Reference: patent US12162858B2, “Quinoline derivatives as inhibitors of AXL/MER RTK and CSF1R” (QURIENT CO., LTD., priority 2018, dated 2024)

biological target: CSF1R (Homo sapiens, UniProt P07333); assay: Cellular CSF1R inhibition ELISA (p-CSF1R, M-CSF-induced) using THP-1 cells; type: cell-based; set-up: THP-1 cells act as a model for human monocytes; endogenous in cells; host or cells: THP-1
In short: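 THP-1 cells (2×10^5/well, RPMI/10% FBS) were treated with compound, 10 doses in 3-fold steps, for 24 h at 37 °C in 0.2% DMSO final. They were then stimulated 5 min with human M-CSF (10 ng/ml final) and lysed. p-CSF1R was read by sandwich ELISA (HRP/TMB), with a sigmoidal dose-response fit.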

Chain of CSF1R (P07333 20-972): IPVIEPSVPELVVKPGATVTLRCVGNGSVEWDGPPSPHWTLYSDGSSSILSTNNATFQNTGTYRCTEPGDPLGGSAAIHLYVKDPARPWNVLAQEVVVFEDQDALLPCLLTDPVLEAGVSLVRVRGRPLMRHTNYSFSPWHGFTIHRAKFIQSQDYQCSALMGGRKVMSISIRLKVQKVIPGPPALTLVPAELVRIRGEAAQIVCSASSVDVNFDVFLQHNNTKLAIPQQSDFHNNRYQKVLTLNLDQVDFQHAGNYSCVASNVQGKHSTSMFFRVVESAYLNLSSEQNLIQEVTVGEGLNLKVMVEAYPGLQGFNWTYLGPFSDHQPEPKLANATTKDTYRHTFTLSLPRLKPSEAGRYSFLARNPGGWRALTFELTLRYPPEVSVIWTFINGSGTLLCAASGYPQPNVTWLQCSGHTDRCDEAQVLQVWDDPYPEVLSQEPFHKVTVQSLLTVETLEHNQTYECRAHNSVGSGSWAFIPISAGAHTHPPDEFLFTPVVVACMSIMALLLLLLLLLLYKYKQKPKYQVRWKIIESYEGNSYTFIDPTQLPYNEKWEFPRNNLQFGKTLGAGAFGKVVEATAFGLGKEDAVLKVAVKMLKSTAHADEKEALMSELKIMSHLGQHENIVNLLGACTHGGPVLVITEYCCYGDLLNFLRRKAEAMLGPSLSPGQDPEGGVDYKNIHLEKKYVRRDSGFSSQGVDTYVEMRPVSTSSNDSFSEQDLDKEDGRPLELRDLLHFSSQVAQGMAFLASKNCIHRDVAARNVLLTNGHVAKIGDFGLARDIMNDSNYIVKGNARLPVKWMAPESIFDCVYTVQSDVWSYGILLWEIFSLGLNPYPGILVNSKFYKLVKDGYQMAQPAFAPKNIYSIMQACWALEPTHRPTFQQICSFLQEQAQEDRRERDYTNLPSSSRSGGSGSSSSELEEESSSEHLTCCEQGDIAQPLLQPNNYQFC

SMILES | IC50 [µM]
COc1cc2nccc(Oc3ccc(NC(=O)c4nn(C5CC5)cc4OCC(F)(F)F)nc3)c2cc1OC [Compound 5] | < 0.5
COc1cc2nccc(Oc3ccc(NC(=O)c4nn(C5CCOC5)cc4OCC(F)(F)F)c(F)c3)c2cc1OC (stereo not shown) [Compound 77] | ≥ 1
COc1cc2nccc(Oc3ccc(NC(=O)c4nn(C5CCNC5)cc4OCC(F)(F)F)cc3F)c2cc1OC (stereo not shown) [Compound 78] | ≥ 1
COc1cc2nccc(Oc3ccc(NC(=O)c4nn(CCN)cc4OCC(F)(F)F)cc3F)c2cc1OC [Compound 79] | ≥ 1
COc1cc2nccc(Oc3ccc(NC(=O)c4nn(CC(C)O)cc4OCC(F)(F)F)cc3F)c2cc1OC (stereo not shown) [Compound 80] | ≥ 1
COc1cc2nccc(Oc3ccc(NC(=O)c4nn(C5CCNC5)cc4OCC(F)(F)F)cc3C)c2cc1OC (stereo not shown) [Compound 81] | ≥ 1
COc1cc2nccc(Oc3ccc(NC(=O)c4nn(CCN)cc4OCC(F)(F)F)cc3C)c2cc1OC [Compound 82] | ≥ 1
COc1cc2nccc(Oc3ccc(NC(=O)c4nn(CC(C)O)cc4OCC(F)(F)F)cc3C)c2cc1OC (stereo not shown) [Compound 83] | < 0.5
COCCn1cc(OCC(F)(F)F)c(C(=O)Nc2ccc(Oc3ccnc4cc(OC)c(OC)cc34)c(C)c2)n1 [Compound 84] | 0.5 to 1
COc1cc2nccc(Oc3ccc(NC(=O)c4nn(C5CCOC5)cc4OCC(F)(F)F)cc3C)c2cc1OC (stereo not shown) [Compound 85] | 0.5 to 1
COc1cc2nccc(Oc3ccc(NC(=O)c4nn(C5CCNC5)cc4OCC(F)(F)F)cc3)c2cc1OC (stereo not shown) [Compound 86] | ≥ 1

More lines, now with the values ahead:

IC50 [µM] | SMILES
0.5 to 1 | COc1cc2nccc(Oc3ccc(NC(=O)c4nn(CC(C)C)cc4OCC(F)(F)F)cc3)c2cc1OC [Compound 87]
≥ 1 | COc1cc2nccc(Oc3ccc(NC(=O)c4nn(CCN)cc4OCC(F)(F)F)cc3)c2cc1OC [Compound 88]
0.5 to 1 | COc1cc2nccc(Oc3ccc(NC(=O)c4nn(CC(C)O)cc4OCC(F)(F)F)cc3)c2cc1OC (stereo not shown) [Compound 89]
< 0.5 | COc1cc2nccc(Oc3ccc(NC(=O)c4nn(C5CCOCC5)cc4OCC(F)(F)F)nc3)c2cc1OC [Compound 90]
< 0.5 | COc1cc2nccc(Oc3ccc(NC(=O)c4nn(C5CCN(C)C5)cc4OCC(F)(F)F)nc3)c2cc1OC (stereo not shown) [Compound 91]
< 0.5 | COc1cc2nccc(Oc3ccc(NC(=O)c4nn(CCC5CCCC5)cc4OCC(F)(F)F)nc3)c2cc1OC [Compound 93]
≥ 1 | COc1cc2nccc(Oc3ccc(NC(=O)c4nn(C5CCN(C)C5)cc4OCC(F)(F)F)c(F)c3)c2cc1OC (stereo not shown) [Compound 94]
≥ 1 | COc1cc2nccc(Oc3ccc(NC(=O)c4nn(CC5COC5)cc4OCC(F)(F)F)c(F)c3)c2cc1OC [Compound 95]
